Experimental data as given in US20260000642A1 (Tay Therapeutics Limited, priority 2022, published 2026).
pIC50: −log10 of the molar value. Values after ≈ are worked out from the molar mass of the structure shown.

Key:
[1] = Thermodynamic solubility in FaSSIF pH 6.5 buffer; format: physicochemical; conditions: thermodynamic from solid, FaSSIF pH 6.5, 25° C., Method 2 (LCMS)
Excerpt: BET protein inhibitors with a high aqueous solubility are in some embodiments promising oral drug candidates. Some of the exemplary compounds of the current disclosure have high solubility (measured in μM) in Fasted State Simulated Intestinal Fluid (FaSSIF) pH 6.5 buffer. The experimental methods and results (Table 4) are provided hereinafter.
Thermodynamic Solubility Assay, Method 1
FaSSIF v2 buffer is freshly prepared prior to use according to the suppliers' instructions and the pH adjusted to 6.5 using 1 M NaOH or 1 M HCl as required. From 1 mM working solution of test compound in DMSO, the λmax of the test compound is determined by scanning from 200 nm to 700 nm, in 1 nm steps with an EPOCH UV/Visible spectrophotometer (Biotek Instruments Inc.). A 12-point standard curve of compound concentration versus absorption at λmax is generated via two-fold serial dilutions of the 1 mM working solution with DMSO. Approximately 1 mg of test compound is accurately weighed into an Eppendorf tube and the appropriate volume of FaSSIF buffer is added to make a nominal concentration of 1 mg/mL. […]
FaSSIF buffer was prepared according to the suppliers' instructions and the pH adjusted to 6.5 using 1 M NaOH or 1 M HCl as required. […] The concentration of the test compound in the filtrate was determined by LCMS analysis with reference to the internal standards to determine the solubility in the buffer.

[2] = Plasma stability assay, rat plasma; format: in vitro ADME; conditions: 37° C., Method 2 (10 μM)
Description: Exemplary compounds of the disclosure are stable upon incubation in mouse plasma. Stability is expressed as a % remaining after 120 minutes. The experimental methods and results (Table 2) are provided hereinafter.
Plasma Stability Assay, Method 1
From stock solution of compound in 10 mM DMSO, a working solution of 1 mM is prepared by diluting the compound in DMSO. To 398 μL of plasma pre-warmed at 37° C. for 15 minutes), 2 μL of working solution of compound is added, resulting in a final concentration of 5 μM (0.5% DMSO) for the compound. The sample is then incubated at 37° C. Aliquot is withdrawn at specified time-points (0, 15, 30, 60 and 120 mins). The reaction is stopped by addition of 450 μL cold acetonitrile containing internal standard (IS). […] Aliquots of the supernatant is analysed using LC-MS/MS. The percent remaining of the compound at each time point is calculated with respect to the control sample (0 min time-point).
Plasma Stability Assay, Method 2
A working solution of compound (500 μM) is prepared in DMSO (100%). To 735 μL of plasma, 15 μL of working solution of compound is added—resulting in a final concentration of 10 μM (2% DMSO) for the compound. The sample is then incubated at 37° C. Aliquot is withdrawn at time-points—0, 15, 30, 60, 90 and 120 mins. The reaction is stopped by using chilled acetonitrile containing internal standard (IS). The samples are centrifuged and the supernatants analyzed using LC-MS/MS. The percent remaining of the compound at each time point is calculated with respect to the control sample (0 min time-point).

BRD4 BD2 = molecular target: T1, BRD4 BD2 (Homo sapiens, UniProt O60885); experiment: NanoBRET bromodomain assay, NanoLuc-BRD4-BD2 fusion vector in HEK293 cells; format: cell-based; conditions: NanoBRET, HEK293 cells, top concentration 10 μM
T1 construct: HEK293 cells were transfected using NanoLuc-BRD4-BD1 or NanoLuc-BRD4-BD2 fusion vectors; host or cells: HEK293
Excerpt: (§1) Bromodomain Assay Procedure

BRD4 BD1 = molecular target: T2, BRD4 BD1 (Homo sapiens, UniProt O60885); experiment: NanoBRET bromodomain assay, NanoLuc-BRD4-BD1 fusion vector in HEK293 cells; format: cell-based; conditions: top concentration 10 μM
T2 construct: HEK293 cells were transfected using NanoLuc-BRD4-BD1 or NanoLuc-BRD4-BD2 fusion vectors; host or cells: HEK293
Excerpt: as §1

## CNC(=O)c1[nH]c(C(=O)NC2CCC(O)CC2)cc1OC(C)c1ccc(Cl)cc1 (single isomer, unassigned) [Example 29, 3-(1-(4-chlorophenyl)ethoxy)-N^5-(4-hydroxycyclohexyl)-N^2-methyl-1H-pyrrole-2,5-dicarboxamide]
[1]
  solubility thermodynamic: 1230 µM (≈ 516 µg/mL)
[2]
  Plasma Stability (% remaining at 120 minutes) Rat: 89%
BRD4 BD2
  pIC50: 6.70 to 7.30
BRD4 BD1
  pIC50: ≤ 5.00
